Experimental findings from US20140094465A1, “Compounds as S-Nitrosoglutathione Reductase Inhibitors” (N30 PHARMACEUTICALS, INC., priority 2011, published 2014) are described below.

By IC50 is commonly meant the midpoint of a concentration-inhibition curve.

Assay [1] relates to dextran sodium sulfate (DSS)-induced IBD. The assay is described as follows: Acute prophylactic model of DSS-induced IBD. It is filed as in vivo, mouse. The conditions noted are these: for decrease of percent of mice with severe colon injury scores via endoscopy / decrease of percent of mice with severe colon injury scores via histopathology: prophylactic.
Assay [2] has as its target T1, S-nitrosoglutathione reductase (GSNOR) (Homo sapiens, UniProt P11766).
T1 construct: made in house; host or cells: E. coli
Put plainly: GSNOR assay (inhibition of GSNOR activity, NADH absorbance at 340 nm). The note with it: GSNOR inhibitor activity, Tables 1-6; read-out: IC50 range. The assay is classed as biochemical. The gist of the method:
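Recombinant GSNOR purified from E. coli, tag removed. Final conditions: 100 mM NaPO4 pH 7.4, 0.240 mM GSNO, 0.300 mM NADH, 0.5 μg/mL enzyme, 1% DMSO; NADH loss followed as 340 nm absorbance change over 3 min at 25 °C. Compounds 100–0.003 μM, triplicate; IC50 by curve analysis.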

T1 sequence (P11766 whole entry): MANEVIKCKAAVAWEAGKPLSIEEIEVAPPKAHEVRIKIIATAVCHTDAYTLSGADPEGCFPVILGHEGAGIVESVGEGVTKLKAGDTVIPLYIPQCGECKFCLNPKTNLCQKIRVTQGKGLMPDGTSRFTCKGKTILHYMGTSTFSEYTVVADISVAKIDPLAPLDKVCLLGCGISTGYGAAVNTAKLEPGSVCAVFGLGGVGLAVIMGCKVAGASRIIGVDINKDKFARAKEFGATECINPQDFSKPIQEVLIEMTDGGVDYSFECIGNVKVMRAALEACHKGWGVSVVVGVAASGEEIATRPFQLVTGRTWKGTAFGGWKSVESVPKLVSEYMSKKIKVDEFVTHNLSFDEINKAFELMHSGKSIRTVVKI

Take `O=C(O)c1ccc(-c2c(C(F)(F)F)oc3cc(O)ccc3c2=O)c(F)c1` [IV-38]: in assay [1] (oral 10 mg/kg/day for 10 days), the “decrease of percent of mice with severe colon injury scores via endoscopy” value was 58 % of vehicle control and the “decrease of percent of mice with severe colon injury scores via histopathology” value is listed as 15 % of vehicle control. Also, the half-maximal inhibitory concentration (IC50) in assay [2] is under 100 nM.
On the same counts, the results for `O=c1c(-c2ccc(-c3nnn[nH]3)cc2)c(C(F)(F)F)oc2cc(O)ccc12` [IV-23] are 75 % of vehicle control, 17 % of vehicle control and under 100 nM.
With `O=C(O)c1ccc(-c2ccc3cc(O)ccc3c2)c(F)c1` [III-2], the “decrease of percent of mice with severe colon injury scores via histopathology” value in assay [1] (oral 10 mg/kg/day for 10 days) is 26 % of vehicle control. For the same molecule, the IC50 in assay [2] is under 100 nM.
Turning to `O=c1c2ccc(O)cc2oc(C(F)(F)F)c1[C@H]1CC[C@H](C(=O)O)CC1` [IV-25], in assay [1] (oral 0.1 mg/kg/day for 10 days), the “decrease of percent of mice with severe colon injury scores via pathology” value is given as 12 % of vehicle control and the “decrease of percent of mice with severe colon injury scores via endoscopy” value is on record as 38 % of vehicle control. Besides, in assay [1] (oral 1 mg/kg/day for 10 days), the “decrease of percent of mice with severe colon injury scores via endoscopy” value is reported as 25 % of vehicle control and the “decrease of percent of mice with severe colon injury scores via histopathology” value is 33 % of vehicle control. In assay [2], the IC50 was under 100 nM.
For the molecule `O=c1[nH]c(-c2ccc(-c3c(C(F)(F)F)oc4cc(O)ccc4c3=O)cc2)no1` [IV-31], in assay [2], the IC50 was under 100 nM.
